Measured values from US20230295086A1, “NOVEL PSILOCIN DERIVATIVES HAVING PRODRUG PROPERTIES” (COMPASS […], priority 2020, published 2023).
≈ marks a conversion by molar mass, not a printed value. Marks after values point to notes of the source that are not given here.

Key:
[1] = Kinetic solubility assay (Example 11)
Description: Test and control compounds were diluted to 10 mM in DMSO and then further diluted 1 in 50 in 50 mM PB (pH 7.4) to a target concentration of 200 μM. Samples were vortexed for at least 2 minutes and then left to shake (800 rpm) at room temperature for 24 hours. Visual appearance was assessed before centrifugation and injection into a UPLC system to measure concentration. […] Each compound was tested in duplicate.

[2] = Shake flask Log D assay (Example 11); assay type: physicochemical; details: 1-Octanol / 100 mM PB pH 7.4, shake flask, LC-MS/MS; test compound as hydrochloride
Description: Test and control compounds were diluted to 10 mM in DMSO. 2 μl of each stock solution was aliquoted into tubes in duplicate. 1-Octanol saturated phosphate buffer (PB) (pH 7.4) was prepared by adding 1-Octanol into 100 ml of 100 mM PB (7.4). PB saturated 1-Octanol was prepared by adding 10 ml of 100 mM PB (7.4) into 100 ml of 1-Octanol. 149 μl of each solution was aliquoted into the corresponding tubes. These were then mixed vigorously for 2 minutes and shaken (800 rpm) at room temperature for one hour. The appropriate volume of buffer and 1-Octanol layer samples was aliquoted and diluted, before detection using LC-MS/MS.
Log D was calculated according to the following equation: […]

[3] = Kinetic turbidimetric solubility assay; details: 0.01 M PBS pH 7.4, 2% DMSO, room temperature, novel compounds as hemifumarate, psilocybin and psilocin free base; for solubility at 5 min: pH 7.4, aqueous buffer, kinetic from dmso stock
Description: Each test compound was diluted to 10 mM in DMSO. From this solution, six further dilutions of each test compound were prepared in DMSO (0.02, 0.1, 0.2, 1, 2, and 5 mM). […] Three replicate wells were designated per concentration. Following the dilutions in buffer, plates were incubated at room temperature shaking for 5 minutes before the absorbance was measured at 620 nm using a Molecular Devices SpectraMax384 UV detector. Nicardipine was tested as a control compound.
Solubility was estimated from the concentration of test compound that produced an increase in absorbance above a threshold of 0.005 absorbance units and was normalized to the DMSO blank.

Micro shake flask Log D = details: for Mean LogD: Octanol:PBS 1:9, pH 7.4, 10 μM, six replicates, novel compounds as hemifumarate; for logD at 2 h: pH 7.4
Description: 6 replicates of each test compound were incubated at 10 μM in a 1:9 ratio of Octanol: PBS at pH 7.4. Following a two hour incubation at room temperature shaking at 600 rpm, the incubation plate was centrifuged for 15 minutes to separate the layers and then two aliquots were removed from the PBS layer. The first was left neat and the second was diluted 10-fold to give dilute samples. Internal standards were added to both the calibration curve and the PBS incubation samples for analysis on LC MS/MS.
All 6 replicates of the neat samples were averaged to give one value for each, with the same calculation performed for the dilute sample values.

[4] = molecular target: T1, serotonin 2A (5-HT2A) receptor (Mus musculus, UniProt P35363); assay: Head twitch response (HTR) in mice; assay type: in vivo, male C57BL/6J mice; details: oral gavage 0.3 mg/kg
T1 construct: tissue Charles River UK; host or cells: whole living male C57BL/6J mice (in vivo, oral gavage)
T1 sequence (P35363 whole entry): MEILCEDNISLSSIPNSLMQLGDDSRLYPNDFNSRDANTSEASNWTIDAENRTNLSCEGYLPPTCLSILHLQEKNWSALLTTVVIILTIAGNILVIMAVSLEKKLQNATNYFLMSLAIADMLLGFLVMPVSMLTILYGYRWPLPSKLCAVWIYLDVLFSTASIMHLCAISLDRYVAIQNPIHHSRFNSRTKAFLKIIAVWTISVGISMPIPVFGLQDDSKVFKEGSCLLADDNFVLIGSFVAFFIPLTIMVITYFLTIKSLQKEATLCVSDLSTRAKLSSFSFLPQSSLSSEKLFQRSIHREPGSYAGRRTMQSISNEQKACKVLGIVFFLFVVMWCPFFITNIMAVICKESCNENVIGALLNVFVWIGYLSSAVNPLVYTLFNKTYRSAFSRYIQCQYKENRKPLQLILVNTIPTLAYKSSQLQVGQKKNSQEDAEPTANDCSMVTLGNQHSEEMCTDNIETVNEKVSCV

[5] = Intake study: serum concentrations after oral ingestion by two volunteers; details: for c(Psilocin): study 1
Description: Two volunteers (1 M, 1 F) ingested about 1 mg of each one of P1 and M1 (Study 1) and P2 and M2 (Study 2) in gelatin capsules (exact amounts in Tables 3 and 4). One blood sample was collected prior to ingestion of the substances and served as a zero control. After ingestion samples were collected for about 8 h with increasing time intervals between sample taking (exact protocol in Tables 4 and 5). […] The obtained sera were transferred in plastic tubes and NaF (ca. 30 mg) and ascorbic acid (ca. 5 mg) were added to increase analytes stability.
200 μL serum were spiked with an internal standard solution (10 μL) and ACN (600 μL) was added to precipitate soluble proteins. Before mixing thoroughly ammonium formate (10 M, 200 μL) was added separate the aqueous from the organic phase. After centrifugation (6 min, 4,000×g), 500 μL of the organic phase were transferred into another vial and evaporated to dryness at 40° C. under a gentle stream of nitrogen. Samples were reconstituted in 100 μL mobile phase (A/B, 90/10, v/v) and used for analysis. For quantification a blank sample and a six point calibration (0.5, 1.0, 2.0, 5.0, 10, 20 ng/mL) in calf serum were prepared as described above.
The HPLC-MS system consisted of a Nexera X2 UHPLC system composed of three LC-30AD pumps, a DGU-30A3 degasser, a SIL-30AC autosampler, a CTO-10AS column oven and a CBM-20A controller (Shimadzu, Duisburg, Germany) coupled to a QTRAP 6500plus triple quadrupole linear ion trap mass spectrometer equipped with a TurbolonSpray Interface (Sciex, Darmstadt, Germany). The MS was operated in positive electrospray ionization mode. Data acquisition was performed in scheduled multiple reaction monitoring mode (detection window: 60 s) using Analyst software (version 1.7). MS parameters (declustering potential, entrance potential, collision energy, and collision cell exit potential) were optimized for all substances to obtain the best possible signal intensities (summary of the MRM parameters are given in Table 5). Ion source temperature and ion source voltage were set to 550° C. and +5500 V, respectively. Dwell time was 20 ms for every MRM transition. Curtain gas (N2) pressure was 35 psi, ion source gas 1 and 2 (compressed air) pressure were 50 and 60 psi, respectively, and collision gas (N2) pressure was set to “high.” Chromatographic separation was performed on a Kinetex® biphenyl column (100×2.1 mm, 2.6 μm particle size, Phenomenex, Aschaffenburg, Germany) with a corresponding guard column (SecurityGuard™ ULTRA Cartridges UHPLC Biphenyl for 2.1 mm ID columns, Phenomenex, Aschaffenburg, Germany). The autosampler and the column oven temperature were set to 10° C. and 40° C., respectively. The injection volume was 10 μL.

[6] = serum, oral intake of about 1 mg prodrug, mean of 2 volunteers

NC(=O)N1c2ccccc2C=Cc2ccccc21 [Carbamazepine]
Detected concentration ([1]; 50 mM PB pH 7.4, target 200 μM, 24 hours shaking at room temperature, UPLC, test compound as hydrochloride): 180 µM | solubility at 24 h ([1]; pH 7.4, aqueous buffer, kinetic from dmso stock): > 180 µM

CN(C)CCCN1c2ccccc2Sc2ccc(Cl)cc21 [Chlorpromazine]
logD at 1 h [2]: 3.28

CCOC(=O)Oc1cccc2[nH]cc(CCN(C)CC)c12 [N-methyl-N-ethyltryptamine-4-yl ethylcarbonate]
Solubility [3]: >200 µM | Mean LogD (Micro shake flask Log D): 1.01 | Mean number of head twitches 15-30 mins ([4]; N = 8): 3.5 | Mean number of head twitches 30-45 mins ([4]; N = 8): 2.38 | Mean number of head twitches 45-60 mins ([4]; N = 8): 0.38

CC(C)(C)NCC(O)COc1cccc2c1CC(O)C(O)C2 (stereo not shown) [Nadolol]
logD at 1 h [2]: -1.33

COC(=O)C1=C(C)NC(C)=C(C(=O)OCCN(C)Cc2ccccc2)C1c1cccc([N+](=O)[O-])c1 (stereo not shown) [Nicardipine]
solubility at 5 min [3]: 24.4 µM (≈ 11.7 µg/mL)

CN(C)CCc1c[nH]c2cccc(O)c12 [Psilocin, psilocin]
solubility at 5 min [3]: > 200 µM | logD at 2 h (Micro shake flask Log D): 1.01

CCOC(=O)Oc1cccc2[nH]cc(CCN(C)C)c12 [Psilocin-4-yl-ethylcarbonate, psilocin-4-yl ethyl carbonate]
Mean LogD (Micro shake flask Log D): 1.22 | Parent prodrug itself in serum (not detected, LOD) ([5]; serum after oral ingestion of about 1 mg): < 0.05 ng/mL | Cmax of psilocin [5, 6]: 1.1 ± 0.5 ng/mL | Tmax of psilocin [5, 6]: 0.933 ± 0.217 h | elimination constant kel of psilocin [5, 6]: 0.0039 min⁻¹ | elimination half life t1/2 of psilocin [5, 6]: 3.18 h | c(Psilocin) ([5]; serum, test person A, oral P1 1.03 mg salt, 15 min, below LOQ, extrapolated): 0.15* ng/mL | c(Psilocin) ([5]; serum, test person A, oral P1 1.03 mg salt, 21 min): 0.34 ng/mL | c(Psilocin) ([5]; serum, test person A, oral P1 1.03 mg salt, 31 min): 0.51 ng/mL | c(Psilocin) ([5]; serum, test person A, oral P1 1.03 mg salt, 49 min): 0.82 ng/mL | c(Psilocin) ([5]; serum, test person A, oral P1 1.03 mg salt, 65 min): 1.45 ng/mL | c(Psilocin) ([5]; serum, test person A, oral P1 1.03 mg salt, 87 min): 1.02 ng/mL | c(Psilocin) ([5]; serum, test person A, oral P1 1.03 mg salt, 120 min): 1.02 ng/mL | c(Psilocin) ([5]; serum, test person A, oral P1 1.03 mg salt, 155 min): 0.59 ng/mL | c(Psilocin) ([5]; serum, test person A, oral P1 1.03 mg salt, 165 min): 0.98 ng/mL | c(Psilocin) ([5]; serum, test person A, oral P1 1.03 mg salt, 240 min): 0.58 ng/mL | c(Psilocin) ([5]; serum, test person A, oral P1 1.03 mg salt, 338 min): 0.34 ng/mL | c(Psilocin) ([5]; serum, test person A, oral P1 1.03 mg salt, 371 min): 0.33 ng/mL | c(Psilocin) ([5]; serum, test person A, oral P1 1.03 mg salt, 424 min, below LOQ, extrapolated): 0.29* ng/mL | c(Psilocin) ([5]; serum, test person A, oral P1 1.03 mg salt, 486 min, below LOQ, extrapolated): 0.26* ng/mL | c(Psilocin) ([5]; serum, test person B, oral P1 0.99 mg salt, 6 min, below LOQ, extrapolated): 0.22* ng/mL | c(Psilocin) ([5]; serum, test person B, oral P1 0.99 mg salt, 13 min, below LOQ, extrapolated): 0.25* ng/mL | c(Psilocin) ([5]; serum, test person B, oral P1 0.99 mg salt, 20 min): 0.38 ng/mL | c(Psilocin) ([5]; serum, test person B, oral P1 0.99 mg salt, 30 min): 0.60 ng/mL | c(Psilocin) ([5]; serum, test person B, oral P1 0.99 mg salt, 47 min): 0.76 ng/mL | c(Psilocin) ([5]; serum, test person B, oral P1 0.99 mg salt, 64 min): 0.54 ng/mL | c(Psilocin) ([5]; serum, test person B, oral P1 0.99 mg salt, 83 min): 0.60 ng/mL | c(Psilocin) ([5]; serum, test person B, oral P1 0.99 mg salt, 114 min): 0.43 ng/mL | c(Psilocin) ([5]; serum, test person B, oral P1 0.99 mg salt, 165 min): 0.37 ng/mL | c(Psilocin) ([5]; serum, test person B, oral P1 0.99 mg salt, 232 min): 0.32 ng/mL | c(Psilocin) ([5]; serum, test person B, oral P1 0.99 mg salt, 322 min, below LOQ, extrapolated): 0.25* ng/mL | c(Psilocin) ([5]; serum, test person B, oral P1 0.99 mg salt, 369 min, below LOQ, extrapolated): 0.24* ng/mL | c(Psilocin) ([5]; serum, test person B, oral P1 0.99 mg salt, 432 min, below LOQ, extrapolated): 0.22* ng/mL | Mean number of head twitches 0-15 mins ([4]; N = 8): 3.5 | Mean number of head twitches 15-30 mins ([4]; N = 8): 3.13 | Mean number of head twitches 30-45 mins ([4]; N = 8): 3.38 | Mean number of head twitches 45-60 mins ([4]; N = 8): 1.13 | Mean number of head twitches Total 0-60 mins ([4]; N = 8, 0.3 mg/kg): 10.84

CN(C)CCc1c[nH]c2cccc(OP(=O)(O)O)c12 [Psilocybin, psilocybin, reference compound]
solubility at 5 min [3]: ≥ 100 µM | logD at 2 h (Micro shake flask Log D): 0.57
